Tests used:
[1] = Treatment of cardiovascular diseases; assay type: in vivo, human
Protocol: The subjects were treated with sodium carbonate with about at least 2 g daily, with improvement occurring within short time, within about 1-2 weeks.

[2] = Treatment of skin diseases (psoriasis, neurodermatitis); assay type: in vivo, human
Protocol: The term skin diseases describes in particular psoriasis and neurodermatitis. Basically, in the case of psoriasis patients the inventive dosing schedule is very welcome, because it counterbalances the negative effects of very strong medications that are administered in such cases; these improve by 65-80% with the inventive dosing schedule.
The subjects were treated with sodium carbonate with about 2 g+daily, after which the normal effect is achieved as described above; 1-2 weeks.

tumor tissue = assay: Treatment of cancer under medical supervision
Protocol: The subjects were treated under medical supervision with antibiotics and vitamins, trace elements, and/or natural medicines individually and in combination.

[3] = Treatment of obesity, cellulitis, cellulite, acne
Protocol: Test series 1: The subjects were treated with vitamins, trace elements (ZK), and/or natural medicines individually and in combination.
Alkaline saturation of the body, at plasma pH of a maximum of 8.5.

[4] = Treatment of acidosis, test series with and without Na
Protocol: In order to restore the body rapidly and successfully, test series were performed with and without Na.
Test series 1: The subjects were treated with vitamins, trace elements, and/or natural medicines individually and in combination.

[5] = test series 2, at least 2 g daily

O=C([O-])[O-].[Na+].[Na+] [sodium carbonate]
time until improvement occurred ([1]; about at least 2 g daily): 1-2 weeks | uptake of mineral substances and natural medicines ([1]; cardiovascular diseases): improved considerably | rehabilitation ([1]; cardiovascular diseases, followed by vitamins and trace elements): 100% | time until the normal effect is achieved ([2]; about 2 g+ daily): 1-2 weeks | considerable improvement ([2]; psoriasis or neurodermatitis patients): about 80% | time until tissue reacted perceptibly (tumor tissue; cancer, at least 2 g daily): 1-2 weeks | swelling reduced (tumor tissue; cancer, statements made by the subjects): about 80% | reduction in tumor size (tumor tissue; cancer, to date): about 30% | uptake of mineral substances and natural medicines (tumor tissue; used internally and externally): improved considerably | weight change ([3]; followed by high-dose vitamins and acids for several weeks, no yo-yo effect over about 2 years): extensive weight reduction | rehabilitation ([3]; obesity, cellulitis, cellulite, acne): 95% | uptake of mineral substances and natural medicines ([3]; test series 2): improved considerably | time until tissue responded perceptibly [3, 5]: 1-2 weeks | uptake of mineral substances and natural medicines ([4]; test series 2): improved considerably and obviously | time until improvement occurred [4, 5]: 1-2 weeks | successful ([4]; test series 2, followed by vitamins and trace elements): 100%
